Assay results published in paper PMC11887451, “Leveraging Immunogenic Cell Death to Enhance the Immune Response against Malignant Pleural Mesothelioma Tumors” (Journal of the American Chemical Society, 2025).
Entries after “also recorded” stand apart in the source; their conditions may differ.

Legend:
[1] = system: M0-differentiated THP-1 cells; assay: MTT-based viability assay on M0-differentiated THP-1 cells, 72 h; format: cell-based, human; conditions: 72-h exposure, compared with AB12 cells
Experimental: incubated for an additional 50 min. Subsequently, the medium was aspirated, and the purple formazan crystals formed in viable cells were dissolved in DMSO (100 μL/well). Optical densities were measured at 570 nm using a BioTek Synergy H1 microplate and MultiskanTM SkyHigh plate readers. The quantity of viable cells was expressed in terms of treated/control (T/C) values in comparison to untreated control cells, and 50% inhibitory concentrations (IC 50) were calculated from concentration-effect curves by interpolation. An evaluation was based on means from at least three independent experiments, each comprising three replicat es per […]
For macrophage analyses, the acute monocytic leukemia -derived THP-1 cell line (ATCC) was used as a model. 1 × 104 THP-1 cells were seeded per well in 96-well plates in RPMI-1640 with 10% FCS and treated for 24 h with 75 nM phorbol 12-myristate 13-acetate (PMA, Sigma-Aldrich) to induce M0 macrophage differentiation. After the differentiation period, PMA was replaced by fresh culture medium to recover for 2h. Afterwards increasing concentrations of 1G, 5A, 5B and 5G were added for a 72-h continuous drug exposure assay. In parallel, the murine mesothelioma cell line AB12 was seeded into 96 -well plates at 2.5 × 10^3 cells/well and were allowed to attach for 24 h. Gold compounds were added to the cells as described for the THP-1 model above. After the incubation period of 72 h, cell viability was determined by an MTT-based assay (EU4U, Biomedica) following the instructions of the manufacturer. DMSO had not impact on the cell viability at the concentrations used. […]

[2] = system: AB12 cells in BALB/c mice; assay: In vivo vaccination model; set-up: species or system mouse; conditions: n = 8
Description: Initially, AB12 cells underwent pretreatment with varying concentrations of Au(III) complexes, and the induced cell death and release of desired ICD biomarkers were monitored over time. Upon reaching a cell death rate of 65%–75%, BALB/c mice (n = 8) were subcutaneously injected in the left flank with a vaccine containing 3 × 10^5 of live/dying/dead cells, while the vehicle group received injections of PBS. Seven days postvaccine administration, the immunized mice were rechallenged by inoculating the same number of live AB12 cells (without any prior treatment) into the right flanks (Figure 5A). The progression of tumor growth on the right flanks was monitored using a caliper.
AB12 cells were seeded into Cellstar 24-well plates (Greiner Bio-One) at a density of 1.8 × 104
cells/ml (1 ml per well) and allowed to grow exponentially for 16 hours. Subsequently, the
medium was replaced with 1 ml of fresh medium containing compounds of interest at
predetermined concentrations (with a minimum of 4 wells per treatment condition). These
concentrations were selected to induce 65-75% cell death.
Subsequently, the culture
medium was aspirated, and the cells were washed twice with 1 mL of PBS. The cell
concentration was adjusted to 3 × 10^5 cells (including dead/dying/live cells) per 100 μL of PBS,
and the ratio of dead/live cells was assessed using the Invitrogen Countess 3 cell counter. In
the subsequent experiment, BALB/c mice (8 mice per group) were subcutaneously injected
with 0.1 mL of AB12 cells (3 × 10^5 cells/mL, including dead/dying/live cells) or the
corresponding vehicle (PBS) on the left flank. Tumor growth was monitored daily.
After 7 days, the mice were subcutaneously injected with
0.1 mL of AB12 cells (3 × 10^5 cells/mL, live cells) on the right flank. Regular measurements
of body weights and tumor sizes were taken. Mice that developed palpable tumors were
euthanized for further analysis.

HMGB1 in AB12 cells = assay: HMGB1 detection, flow cytometry; format: cell-based, mouse; conditions: AB12, 5 × IC50 (72 h), 240 min
Experimental: AB12 cells were seeded into Cellstar 6-well plates (Greiner Bio-One) at a density of 5 × 10^5 cells per well (2 ml per well). The cells were allowed to resume exponential growth for 16 h. […] After the treatment, the supernatant was collected in 2 mL microtubes. The wells were washed with 1 ml of PBS, trypsinized with 300 μL of trypsin at 37 °C for 5 min and combined with the corresponding supernatant. The cell suspension was then centrifuged (300  g, 10 min), washed with PBS (2  1 ml). […] RT, washed once with 1 mL PBS and centrifuged (500  g, 10 min). Next, cells were incubated with HMGB1 antibody (Catalogue number: 3935, Cell Signaling Technology) at 4 °C overnight (1:500 dilution in PBS) and washed with 1 ml of PBS (500  g, 10 min). […] The cells were excited by the 488 nm laser, and fluorescence S24 page 25: emission was detected at 525/40 nm for FITC (CRT). The resulting dot blots were acquired from 10,000 events and quantified using Flowjo software (version 10.8.0, BD Biosciences, San Jose, CA, USA).

[3] = system: calreticulin (CRT) in AB12 cells; assay: CRT detection, flow cytometry; format: cell-based, mouse; conditions: AB12, 5 × IC50 (72 h), 120 min
Experimental: page 23: concentrations for 100 min at 37 °C. After the treatment, the supernatant was collected in 2 mL microtubes, centrifuged (300 × g, 5 min) and the media was removed. The adherent cells were then trypsinized with 500 μL of trypsin at 37 °C for 5 min. Next, 1 mL of medium was added to neutralize trypsin and the resulting cell suspension was combined with the supernatant. The wells were washed with 200 μL of PBS, which was also combined with the supernatant. The combined solutions were centrifuged (300 × g, 5 min), and the resulting pellets were washed with PBS (2 × 1 mL) and resuspended in 200 μL of Annexin V binding buffer. […] Cell death was evaluated by flow cytometry using a CytoFLEX Flow Cytometer equipped with a 488 nm laser and a 638 nm laser (Beckman Coulter, Brea, CA, USA). The cells were excited by the 488 nm laser, and fluorescence emissions were detected at 525/40 nm for FITC (Annexin V) and at 610/20 nm for ECD (PI). […] The percentage of necrosis was determined by calculating the sum of cells in Q1 and Q2. […] Next, cells were incubated with CRT antibody conjugated with AlexaFluor S23 page 24: 488 (62304S, Cell Signaling Technology) at 4 °C overnight, washed twice with PBS, reconstituted in 500 µL of PBS and analyzed by flow cytometry using a CytoFLEX Flow Cytometer equipped with a 488 nm laser and a 638 nm laser (Beckman Coulter, Brea, CA, USA). […]

| SMILES | sensitivity of THP-1-derived macrophages [1] | mice that developed tumors by Day 51 [2] | HMGB1 expression (in words) (HMGB1 in AB12 cells) | CRT expression (in words) [3] |
| --- | --- | --- | --- | --- |
| F[P-](F)(F)(F)(F)F.c1cc[c]2c(c1)Nc1cccc[n+]1[Au-]21[S]C(=[N+]2CCCCCC2)[S]1 (stereo not shown) [5G] | highly sensitive; also recorded: increased sensitivity in comparison to the malignant mesothelioma cells | – | – | – |
| Nc1nc2[nH]cc(CCc3ccc(C(=O)N[C@@H](CCC(=O)O)C(=O)O)cc3)c2c(=O)[nH]1 [Pemetrexed, pemetrexed, reference compound] | – | four of the eight | significant increase in HMGB1 expression | no changes in CRT expression |
